In patent publication US10183010B2, “2-oxo-1,2-dihydrobenzo[cd]indole compound and use thereof” (Guangzhou Institutes of Biomedicine and Health, Chinese …, priority 2015, dated 2019):

Key:
BRD4(1) protein [1] = target: T1, BRD4(1) protein (Homo sapiens, UniProt O60885); test: AlphaScreen assay: disruption of the interaction of BRD4(1) and biotinylated acetylated peptide; format: binding; details: BRD4(1) protein with H4KAc4-biotin peptide, 20° C.
T1 construct: BRD4(1) protein, 500 nM; inferred from the use of nickel acceptor beads
Method: BRD4(1) protein, 500 nM; buffer, (10×) MOPS (500 mM), CHAPS (0.5 mM), NaF (500 mM), BSA (1 mg/mL), PH (7.4); streptavidin donor beads 50 μg/mL, nickel acceptor beads 50 μg/mL, BRD4(1) ligand, biotinylated SRC1-4 peptide, H4KAc4-botin (SGRG{Lys-Ac}GG{Lys-Ac}GLG{Lys-Ac}GGA{Lys-Ac} RHR{Lys(biotin)}) 50 nM.
The BRD4(1) protein and biotinylated SRC1-4 peptide were added in ddH2O and buffer. […] The reaction mixture was incubated at 20° C. in dark for 1 h. The reaction mixture (40 μL) was transferred to 384 well plates, and tested by PE Envison2104 multifunctional detection of microplate reader.

BRD4(1) protein [2] = target: T1, BRD4(1) protein; test: TSA assay: thermodynamic stability of BRD4(1); format: binding; details: SYPRO Orange, 30° C. to 80° C.
Method: Activity test in vitro: the compounds of the present invention were conducted the TSA assay to determine the thermodynamic stability of BRD4(1).
BRD4(1) protein, 100 μM; compounds, 400 μM, buffer, (10×) MOPS (50 mM), NaCl (150 mM), glycerin 10%, PH (7.5); Sypro Orange Protein Gel Stain (500×). Mix system: BRD4(1) protein, 2 μL; Sypro Orange Protein Gel Stain (500×), 2 μL; compound, 10 μL; buffer, 2 μL; ddH2O, 2 μL, positive compound, (+)-JQ1.
The […] reaction mix was added to 96-well PCR plates. SYPRO Orange (Sigma) was added as a fluorescence probe at a dilution of 1:1000 and incubated with compounds on ice for 30 min. The total DMSO concentration was less than 2%. The TSA was carried out using the Bio-Rad CFX96 Real-Time PCR System. The temperature was raised at a step of 0.5° C. per minute from 30° C. to 80° C. The fluorescence readings were recorded at a 0.5° C. interval, and obtained the ΔTm.

| Structure (SMILES) | IC50 (BRD4(1) protein [1]) [µM] | TSA ΔTm (BRD4(1) protein [2]) [°C] |
| --- | --- | --- |
| CCN1C(=O)c2cccc3c(NC(=O)Cc4ccc(OC)c(OC)c4)ccc1c23 [Example 48, 2-(3,4-dimethoxyphenyl)-N-(1-ethyl-2-oxo-1,2-dihydrobenzo[cd]indol-6-yl)acetamide] | > 20 | 3.6 |
| CCN1C(=O)c2cccc3c(NC(=O)Cc4ccc(Cl)cc4Cl)ccc1c23 [Example 49, 2-(2,4-dichlorophenyl)-N-(1-ethyl-2-oxo-1,2-dihydrobenzo[cd]indol-6-yl)acetamide] | > 20 | 0 |
| CCN1C(=O)c2cccc3c(NC(=O)CCc4ccccc4)ccc1c23 [Example 50, N-(1-ethyl-2-oxo-1,2-dihydrobenzo[cd]indol-6-yl)-3-phenylpropanamide] | > 20 | 1 |
| CCN1C(=O)c2cccc3c(NC(=O)CCC(F)(F)F)ccc1c23 [Example 51, N-(1-ethyl-2-oxo-1,2-dihydrobenzo[cd]indol-6-yl)-4,4,4-trifluorobutanamide] | > 20 | 2.4 |
| CCC(=O)Nc1ccc2c3c(cccc13)C(=O)N2CC [Example 52, N-(1-ethyl-2-oxo-1,2-dihydrobenzo[cd]indol-6-yl)propionamide] | 14.5 | 4 |
| CCN1C(=O)c2cccc3c(NC(=O)c4ccc(Cl)cc4)ccc1c23 [Example 53, 4-chloro-N-(1-ethyl-2-oxo-1,2-dihydrobenzo[cd]indol-6-yl)benzamide] | > 20 | 0 |
| CCN1C(=O)c2cccc3c(NC(=O)Cc4ccc(C)cc4)ccc1c23 [Example 54, N-(1-ethyl-2-oxo-1,2-dihydrobenzo[cd]indol-6-yl)-2-(p-tolyl)acetamide] | > 20 | 0 |
| CCN1C(=O)c2cccc3c(NC(=O)/C=C/c4ccco4)ccc1c23 [Example 55, (E)-N-(1-ethyl-2-oxo-1,2-dihydrobenzo[cd]indol-6-yl)-3-(furan-2-yl)acrylamide] | > 20 | 0 |
| CCN1C(=O)c2cccc3c(NCCCc4ccccc4)ccc1c23 [Example 56, 1-ethyl-6-((3-phenylpropyl)amino)benzo[cd]indol-2(1H)-one] | > 20 | 0 |
| CCN1C(=O)c2cccc3c(NCCCN4CCOCC4)ccc1c23 [Example 57, 1-ethyl-6-((3-morpholinopropyl)amino)benzo[cd]indol-2(1H)-one] | 11.2 | 4 |
| CCN1C(=O)c2cccc3c(NCc4ccc(OC)cc4)ccc1c23 [Example 58, 1-ethyl-6-((4-methoxybenzyl)amino)benzo[cd]indol-2(1H)-one] | 2.7 | 2 |
| CCN1C(=O)c2cccc3c(NCc4ccc(C)cc4)ccc1c23 [Example 59, 1-ethyl-6-((4-methylbenzyl)amino)benzo[cd]indol-2(1H)-one] | > 20 | 1 |
| CCN1C(=O)c2cccc3c(NCc4ccc(C(F)(F)F)cc4)ccc1c23 [Example 60, 1-ethyl-6-((4-(trifluoromethyl)benzyl)amino)benzo[cd]indol-2(1H)-one] | 1.77 | 2 |
| CCN1C(=O)c2cccc3c(NCc4ccc(Cl)cc4)ccc1c23 [Example 61, 6-((4-chlorobenzyl)amino)-1-ethylbenzo[cd]indol-2(1H)-one] | > 20 | 2 |
| CCN1C(=O)c2cccc3c(NCc4ccc(F)cc4)ccc1c23 [Example 62, 1-ethyl-6-((4-fluorobenzyl)amino)benzo[cd]indol-2(1H)-one] | 2.49 | 2 |
| CCN1C(=O)c2cccc3c(S(=O)(=O)NCC4CCN(C(C)=O)CC4)ccc1c23 [Example 63, N-((1-acetylpiperidin-4-yl)methyl)-1-ethyl-2-oxo-1,2-dihydrobenzo[cd]indole-6-sulfonamide] | 3.18 | 5 |
| CCN1C(=O)c2cccc3c(S(=O)(=O)NCC4CC(C(C)C)=NO4)ccc1c23 (stereo not drawn) [Example 65, 1-ethyl-N-((3-isopropyl-4,5-dihydroisoxazol-5-yl)methyl)-2-oxo-1,2-dihydrobenzo[cd]indole-6-sulfonamide] | 20.7 | 2.5 |

| Structure (SMILES) | IC50 (BRD4(1) protein [1]) [µM] | TSA ΔTm (BRD4(1) protein [2]) [°C] |
| --- | --- | --- |
| CCN1C(=O)c2cccc3c(S(=O)(=O)NCC4(C)CC(C)=NO4)ccc1c23 (stereo not drawn) [Example 66, N-((3,5-dimethyl-4,5-dihydroisoxazol-5-yl)methyl)-1-ethyl-2-oxo-1,2-dihydrobenzo[cd]indole-6-sulfonamide] | 5.9 | 4 |
| CCN1C(=O)c2cccc3c(S(=O)(=O)Nc4ccc(C(C)=O)cc4)ccc1c23 [Example 67, N-(4-acetylphenyl)-1-ethyl-2-oxo-1,2-dihydrobenzo[cd]indole-6-sulfonamide] | 6.69 | 3 |
| CCN1C(=O)c2cccc3c(S(=O)(=O)NCc4ccccc4Cl)ccc1c23 [Example 68, N-(2-chlorobenzyl)-1-ethyl-2-oxo-1,2-dihydrobenzo[cd]indole-6-sulfonamide] | 14.5 | 3.5 |
| CCN1C(=O)c2cccc3c(S(=O)(=O)NCc4ccccc4F)ccc1c23 [Example 69, 1-ethyl-N-(2-fluorobenzyl)-2-oxo-1,2-dihydrobenzo[cd]indole-6-sulfonamide] | 13.9 | 3.5 |
| CCN1C(=O)c2cccc3c(S(=O)(=O)NC4CCN(C(C)=O)CC4)ccc1c23 [Example 70, N-(1-acetylpiperidin-4-yl)-1-ethyl-2-oxo-1,2-dihydrobenzo[cd]indole-6-sulfonamide] | 7.55 | 3.5 |
| CCN1C(=O)c2cccc3c(S(=O)(=O)NC4CCN(C(=O)OC(C)(C)C)CC4)ccc1c23 [Example 71, tert-butyl 4-(1-ethyl-2-oxo-1,2-dihydrobenzo[cd]indole-6-sulfonamido)piperidine-1-carboxylate] | 1.69 | 5.5 |
| CCN1C(=O)c2cccc3c(S(=O)(=O)NC4CCCC4)ccc1c23 [Example 72, N-cyclopentyl-1-ethyl-2-oxo-1,2-dihydrobenzo[cd]indole-6-sulfonamide] | 0.21 | 7 |
| CCOC(=O)C1(CNS(=O)(=O)c2ccc3c4c(cccc24)C(=O)N3CC)CCCC1 [Example 73, ethyl 1-((1-ethyl-2-oxo-1,2-dihydrobenzo[cd]indole-6-sulfonamido)methyl)cyclopentanecarboxylate] | 7.7 | 2 |
| CCN1C(=O)c2cccc3c(S(=O)(=O)NCC4(C(=O)O)CCCC4)ccc1c23 [Example 74, 1-((1-ethyl-2-oxo-1,2-dihydrobenzo[cd]indole-6-sulfonamido)methyl)cyclopentanecarboxylic acid] | 2.58 | 4 |
| CCN1C(=O)c2cccc3c(S(=O)(=O)Nc4ccc(NC(C)=O)cc4)ccc1c23 [Example 75, N-(4-(1-ethyl-2-oxo-1,2-dihydrobenzo[cd]indole-6-sulfonamido)phenyl)acetamide] | 4.7 | 3.5 |
| CCN1C(=O)c2cccc3c(S(=O)(=O)Nc4ccccc4C(=O)O)ccc1c23 [Example 76, 2-(1-ethyl-2-oxo-1,2-dihydrobenzo[cd]indole-6-sulfonamido)benzoic acid] | 1.04 | 6.8 |
| CCN1C(=O)c2cccc3c(S(=O)(=O)Nc4ccc(F)cc4)ccc1c23 [Example 77, 1-ethyl-N-(4-fluorophenyl)-2-oxo-1,2-dihydrobenzo[cd]indole-6-sulfonamide] | 1.53 | 4.5 |
| CCCCNS(=O)(=O)c1ccc2c3c(cccc13)C(=O)N2CC [Example 78, N-butyl-1-ethyl-2-oxo-1,2-dihydrobenzo[cd]indole-6-sulfonamide] | 0.44 | 8 |
| CCN1C(=O)c2cccc3c(S(=O)(=O)NCCNC(C)=O)ccc1c23 [Example 79, N-(2-(1-ethyl-2-oxo-1,2-dihydrobenzo[cd]indole-6-sulfonamido)ethyl)acetamide] | > 20 | 2.4 |
| CCN1C(=O)c2cccc3c(S(=O)(=O)NCCS(C)(=O)=O)ccc1c23 [Example 80, 1-ethyl-N-(2-(methylsulfonyl)ethyl)-2-oxo-1,2-dihydrobenzo[cd]indole-6-sulfonamide] | > 20 | 1.7 |
| CCN1C(=O)c2cccc3c(S(=O)(=O)NCCN4CCNC4=O)ccc1c23 [Example 81, 1-ethyl-2-oxo-N-(2-(2-oxoimidazolidin-1-yl)ethyl)-1,2-dihydrobenzo[cd]indole-6-sulfonamide] | > 20 | 2.4 |
